Reference: PMC7714403 (JCI Insight, 2020)

Assays:
Assay type in all cases: cell-based
NLK = NLK (Homo sapiens, UniProt Q9UBE8); experiment: KiNativ, MOLM13 live cells; settings: MOLM-13; 100 nM, 2 hours; Lys2; read-out: Inhibition vs DMSO
Protocol: Samples were analyzed by KiNativ in situ kinase profiling by ActivX Biosciences.

LATS2 = target: T1, LATS2 (Homo sapiens, UniProt Q9NRM7); experiment: KiNativ, OCI cells live cell
T1 sequence (Q9NRM7 1-1088): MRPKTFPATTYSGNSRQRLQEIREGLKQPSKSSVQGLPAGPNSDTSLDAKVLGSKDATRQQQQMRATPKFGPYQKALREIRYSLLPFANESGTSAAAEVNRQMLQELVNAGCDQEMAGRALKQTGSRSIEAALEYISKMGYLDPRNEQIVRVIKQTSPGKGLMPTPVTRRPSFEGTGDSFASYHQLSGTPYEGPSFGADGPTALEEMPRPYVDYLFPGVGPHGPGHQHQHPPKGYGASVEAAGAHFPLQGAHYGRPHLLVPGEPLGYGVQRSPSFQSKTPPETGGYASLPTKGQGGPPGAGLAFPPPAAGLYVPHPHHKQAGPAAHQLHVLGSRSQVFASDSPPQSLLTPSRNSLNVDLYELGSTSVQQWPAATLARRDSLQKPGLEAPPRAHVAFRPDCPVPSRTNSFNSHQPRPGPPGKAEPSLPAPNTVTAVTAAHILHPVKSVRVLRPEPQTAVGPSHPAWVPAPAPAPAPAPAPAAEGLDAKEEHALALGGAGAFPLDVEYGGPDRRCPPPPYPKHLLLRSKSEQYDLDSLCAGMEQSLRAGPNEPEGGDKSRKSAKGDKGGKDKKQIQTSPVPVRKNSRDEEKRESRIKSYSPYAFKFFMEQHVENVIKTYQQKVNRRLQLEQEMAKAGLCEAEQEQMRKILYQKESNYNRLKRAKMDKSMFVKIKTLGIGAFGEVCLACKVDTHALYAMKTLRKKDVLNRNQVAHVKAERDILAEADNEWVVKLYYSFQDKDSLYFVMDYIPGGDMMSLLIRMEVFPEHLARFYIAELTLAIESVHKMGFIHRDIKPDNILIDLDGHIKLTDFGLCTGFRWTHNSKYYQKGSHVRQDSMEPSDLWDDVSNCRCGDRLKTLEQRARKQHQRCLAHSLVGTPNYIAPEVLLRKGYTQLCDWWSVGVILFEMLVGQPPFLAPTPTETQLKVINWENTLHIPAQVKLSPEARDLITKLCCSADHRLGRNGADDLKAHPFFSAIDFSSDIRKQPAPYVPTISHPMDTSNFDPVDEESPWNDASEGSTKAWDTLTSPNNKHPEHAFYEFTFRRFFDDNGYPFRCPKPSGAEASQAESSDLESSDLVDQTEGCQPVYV

IRAK1 = IRAK1 (Homo sapiens, UniProt P51617); experiment: KiNativ, OCI cells live cell; settings: 2 h, labeling site Lys2, peptide […]
SYK = SYK (Homo sapiens, UniProt P43405); experiment: KiNativ, OCI cells live cell
MLKL = target: T2, MLKL (Homo sapiens, UniProt Q8NB16); experiment: KiNativ, OCI cells live cell; settings: 2 h, labeling site Lys1, peptide […]
T2 sequence (Q8NB16 1-471): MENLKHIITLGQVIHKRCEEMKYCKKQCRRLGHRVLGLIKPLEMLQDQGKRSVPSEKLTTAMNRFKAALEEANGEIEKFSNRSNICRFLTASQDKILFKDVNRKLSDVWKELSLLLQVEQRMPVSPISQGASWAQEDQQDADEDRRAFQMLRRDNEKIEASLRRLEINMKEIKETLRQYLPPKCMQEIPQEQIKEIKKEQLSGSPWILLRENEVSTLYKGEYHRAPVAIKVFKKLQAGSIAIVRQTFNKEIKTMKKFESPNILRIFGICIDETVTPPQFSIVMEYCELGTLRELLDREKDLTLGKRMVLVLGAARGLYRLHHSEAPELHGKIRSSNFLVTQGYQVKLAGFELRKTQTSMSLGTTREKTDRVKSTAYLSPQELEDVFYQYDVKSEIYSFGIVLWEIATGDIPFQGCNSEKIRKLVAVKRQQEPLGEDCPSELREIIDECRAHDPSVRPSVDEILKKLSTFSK

IRAK3 = target: T3, IRAK3 (Homo sapiens, UniProt Q9Y616); experiment: KiNativ, OCI cells live cell; settings: 2 h
T3 sequence (Q9Y616 1-596): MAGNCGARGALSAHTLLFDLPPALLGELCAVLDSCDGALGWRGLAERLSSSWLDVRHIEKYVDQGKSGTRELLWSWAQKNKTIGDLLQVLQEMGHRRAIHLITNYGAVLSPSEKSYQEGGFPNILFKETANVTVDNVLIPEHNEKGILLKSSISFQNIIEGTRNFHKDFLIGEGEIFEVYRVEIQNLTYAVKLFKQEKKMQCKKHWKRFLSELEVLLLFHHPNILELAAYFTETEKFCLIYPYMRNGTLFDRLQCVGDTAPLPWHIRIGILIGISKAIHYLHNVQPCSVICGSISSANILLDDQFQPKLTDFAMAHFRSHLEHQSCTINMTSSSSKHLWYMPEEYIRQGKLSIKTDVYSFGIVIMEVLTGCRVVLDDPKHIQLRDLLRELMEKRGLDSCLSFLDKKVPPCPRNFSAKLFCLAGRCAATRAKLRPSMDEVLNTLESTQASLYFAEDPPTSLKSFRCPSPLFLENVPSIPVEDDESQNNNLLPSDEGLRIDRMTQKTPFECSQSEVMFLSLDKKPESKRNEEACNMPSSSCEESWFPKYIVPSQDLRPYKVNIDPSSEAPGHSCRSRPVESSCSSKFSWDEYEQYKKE

EphB3 = EphB3 (Homo sapiens, UniProt P54753); experiment: KiNativ, OCI cells live cell; settings: 2 h, labeling site Activation Loop, peptide […]
CDK2 = CDK2 (Homo sapiens, UniProt P24941); experiment: KiNativ, OCI cells live cell

Sequence of EphB3 (P54753 34-998): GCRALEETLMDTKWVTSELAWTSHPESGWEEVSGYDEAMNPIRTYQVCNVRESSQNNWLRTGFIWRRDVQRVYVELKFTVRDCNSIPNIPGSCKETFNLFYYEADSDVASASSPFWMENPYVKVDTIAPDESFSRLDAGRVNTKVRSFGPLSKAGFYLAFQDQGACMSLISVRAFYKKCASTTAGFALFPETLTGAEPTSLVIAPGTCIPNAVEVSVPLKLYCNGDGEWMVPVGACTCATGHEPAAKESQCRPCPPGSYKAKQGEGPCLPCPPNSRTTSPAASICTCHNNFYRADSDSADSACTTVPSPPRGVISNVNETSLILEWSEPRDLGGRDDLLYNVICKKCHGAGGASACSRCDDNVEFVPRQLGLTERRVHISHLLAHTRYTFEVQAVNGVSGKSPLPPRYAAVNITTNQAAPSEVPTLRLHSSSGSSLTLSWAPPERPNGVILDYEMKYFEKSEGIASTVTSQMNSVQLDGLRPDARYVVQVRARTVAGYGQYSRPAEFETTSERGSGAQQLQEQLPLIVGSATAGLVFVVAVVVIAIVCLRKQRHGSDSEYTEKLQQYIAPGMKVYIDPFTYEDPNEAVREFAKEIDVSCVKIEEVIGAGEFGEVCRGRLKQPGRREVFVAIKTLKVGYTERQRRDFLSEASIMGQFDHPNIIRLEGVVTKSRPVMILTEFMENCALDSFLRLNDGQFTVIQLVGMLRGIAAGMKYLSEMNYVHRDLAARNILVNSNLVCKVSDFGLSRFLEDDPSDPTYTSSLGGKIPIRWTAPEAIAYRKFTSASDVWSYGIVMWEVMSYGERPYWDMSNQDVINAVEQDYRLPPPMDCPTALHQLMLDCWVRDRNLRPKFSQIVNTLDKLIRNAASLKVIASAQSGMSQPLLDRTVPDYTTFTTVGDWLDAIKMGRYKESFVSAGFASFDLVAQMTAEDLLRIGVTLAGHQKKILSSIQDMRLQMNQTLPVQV
Sequence of IRAK1 (P51617 whole entry): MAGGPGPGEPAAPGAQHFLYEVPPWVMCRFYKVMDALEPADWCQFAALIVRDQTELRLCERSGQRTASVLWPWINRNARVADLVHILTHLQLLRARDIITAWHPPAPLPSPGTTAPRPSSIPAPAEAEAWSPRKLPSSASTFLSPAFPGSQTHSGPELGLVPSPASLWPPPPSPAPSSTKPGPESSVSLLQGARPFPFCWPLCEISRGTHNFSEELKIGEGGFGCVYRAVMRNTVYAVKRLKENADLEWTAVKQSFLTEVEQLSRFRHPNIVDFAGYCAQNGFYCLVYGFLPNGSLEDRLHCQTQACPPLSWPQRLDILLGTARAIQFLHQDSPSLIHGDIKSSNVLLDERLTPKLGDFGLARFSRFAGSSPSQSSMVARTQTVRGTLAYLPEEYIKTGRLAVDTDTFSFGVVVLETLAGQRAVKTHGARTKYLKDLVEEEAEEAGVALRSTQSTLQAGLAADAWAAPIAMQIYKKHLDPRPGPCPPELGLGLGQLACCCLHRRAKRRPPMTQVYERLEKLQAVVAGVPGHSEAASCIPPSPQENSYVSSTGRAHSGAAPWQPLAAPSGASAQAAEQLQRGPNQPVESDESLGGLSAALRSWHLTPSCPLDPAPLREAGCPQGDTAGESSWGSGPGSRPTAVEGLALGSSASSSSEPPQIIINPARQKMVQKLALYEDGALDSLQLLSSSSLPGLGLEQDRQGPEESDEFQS
Sequence of NLK (Q9UBE8 whole entry): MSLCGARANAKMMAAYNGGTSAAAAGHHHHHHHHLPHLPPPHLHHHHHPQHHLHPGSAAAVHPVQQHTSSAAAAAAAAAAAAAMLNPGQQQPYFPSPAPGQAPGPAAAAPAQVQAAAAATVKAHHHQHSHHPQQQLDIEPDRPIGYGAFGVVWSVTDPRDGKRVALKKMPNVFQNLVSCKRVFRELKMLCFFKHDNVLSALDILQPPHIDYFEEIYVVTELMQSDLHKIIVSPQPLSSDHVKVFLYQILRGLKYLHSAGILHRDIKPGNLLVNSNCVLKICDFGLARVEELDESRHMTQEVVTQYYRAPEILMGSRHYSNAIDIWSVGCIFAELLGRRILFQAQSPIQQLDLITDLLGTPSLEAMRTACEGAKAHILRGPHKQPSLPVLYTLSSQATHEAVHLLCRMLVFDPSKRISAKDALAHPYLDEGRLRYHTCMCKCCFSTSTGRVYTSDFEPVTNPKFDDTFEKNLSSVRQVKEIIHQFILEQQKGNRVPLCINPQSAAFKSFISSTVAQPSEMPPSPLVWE

Molecule `CN1CCN(Cc2ccc(Nc3ncc(Cl)c(Nc4ccccc4S(=O)(=O)N(C)C)n3)cc2)CC1` [TP-0903] has an inhibition at 0.1 µM (NLK) of -30.4%, an Inhibition (LATS2; labeling site Lys1, peptide VDTHALYAMKTLR) of -1.0% and an Inhibition (LATS2; labeling site Lys2, peptide DIKPDNILIDLDGHIK) of -30.2%. It also gave an inhibition at 0.1 µM (IRAK1) of 62.8%, an Inhibition (SYK; labeling site Activation Loop, peptide AQTHGKWPVK) of 39.8% and an Inhibition (SYK; labeling site Activation Loop, peptide ISDFGLSKALR) of 38.5%. It also gave an Inhibition (SYK; labeling site Lys1, peptide TVAVKILK) of 37.9%, an inhibition at 0.1 µM (MLKL) of -29.6% and an inhibition at 0.1 µM (IRAK3; labeling site Lys1, peptide VEIQNLTYAVKLFK) of 87.9%. The inhibition at 0.1 µM (IRAK3; labeling site Protein Kinase Domain, peptide SHLEHQSCTINMTSSSSKHLWYMPEEYIR) was 94.9%, the inhibition at 0.1 µM (EphB3) was 17.1% and the Inhibition (CDK2; labeling site Lys1, peptide LTGEVVALKK) was 37.1%. For the same molecule, the Inhibition (CDK2; labeling site Lys2, peptide DLKPQNLLINTEGAIK) was 41.4%.
